In this test the target is Factor D (Homo sapiens (Human), UniProt P00746). Briefly: Factor D esterolytic assay (Z-Lys-SBzl substrate, DTNB, 405 nm). It counts as biochemical. The conditions noted are these: Z-Lys-SBzl 1.29 mM, pH 7.5, 10% DMSO, tested a minimum of three times, read-out: Measured Ki (IC50) Value for Compounds: IC50. The essentials: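 Human Factor D ([…]) with 1.29 mM Z-Lys-SBzl in 100 mM HEPES, 500 mM NaCl, pH 7.5, 10% DMSO; substrate added immediately or after room-temperature preincubation. Released thiol reacted with DTNB, rate followed at 405 nm for 600 sec, 690 nm background subtracted. IC50 from percent inhibition versus uninhibited rate, n≥3.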

By IC50 is commonly meant the concentration needed to halve the response being measured.

Factor D, sequence (P00746 26-253): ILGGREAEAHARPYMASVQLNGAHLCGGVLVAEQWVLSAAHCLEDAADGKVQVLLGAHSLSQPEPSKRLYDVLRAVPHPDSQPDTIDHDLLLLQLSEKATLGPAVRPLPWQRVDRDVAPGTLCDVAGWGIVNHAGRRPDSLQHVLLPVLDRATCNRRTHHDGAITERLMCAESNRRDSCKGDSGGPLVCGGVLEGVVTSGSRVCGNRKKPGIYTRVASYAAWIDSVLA

In the case of `CC(C)n1ccc2c(-c3cccc(CN)c3F)cc(COc3ccccc3CC(=O)O)cc21` [Compound 111b, 2-(2-((4-(3-(aminomethyl)-2-fluorophenyl)-1-isopropyl-1H-indol-6-yl)methoxy)phenyl)acetic acid], the IC50 is below 1000 nM.

As for `NCc1nccc(-c2cc(COc3ccccc3CC(=O)O)cc3c(C(F)(F)F)coc23)c1F` [Compound 181d, 2-(2-((7-(2-(aminomethyl)-3-fluoropyridin-4-yl)-3-(trifluoromethyl)benzofuran-5-yl)methoxy)phenyl)acetic acid], the IC50 is below 1000 nM.

For `NCc1cccc(-c2cc(CNc3ccccc3CC(=O)O)cc3ccoc23)c1` [Compound 153b, lithium 2-(2-(((7-(3-(aminomethyl)phenyl)benzofuran-5-yl)methyl)amino)phenyl)acetate], the IC50 is below 1000 nM.

For `NCc1cccc(-c2cc(COc3cc(F)ccc3CC(=O)O)cc3c(C(F)(F)F)coc23)c1` [Compound 486c, 2-(2-((7-(3-(aminomethyl)phenyl)-3-(trifluoromethyl)benzofuran-5-yl)methoxy)-4-fluorophenyl)acetic acid], the half-maximal inhibitory concentration (IC50) was below 1000 nM. For the compound `NCc1cccc(-c2cc(C(=O)Nc3ccccc3CC(=O)O)cc3c2cnn3CC2CC2)c1` [Compound 10d, 2-(2-(4-(3-(aminomethyl)phenyl)-1-(cyclopropylmethyl)-1H-indazole-6-carboxamido)phenyl)acetic acid], the IC50 is below 1000 nM. `NCc1nccc(-c2cc(COc3ccc(F)cc3CC(=O)O)cc3ccoc23)c1F` [Compound 90d, 2-(2-((7-(2-(aminomethyl)-3-fluoropyridin-4-yl)benzofuran-5-yl)methoxy)-5-fluorophenyl)acetic acid]: the half-inhibitory concentration (IC50) was below 1000 nM.

Take `NCc1cccc(-c2cc(C(=O)Nc3ccccc3CC(=O)O)cc3cccnc23)c1` [Compound 13c, 2-(2-(8-(3-(aminomethyl)phenyl)quinoline-6-carboxamido)phenyl)acetic acid]: the IC50 is 1000 to 10000 nM. `CC(C)Cc1cc2cc(COc3ccccc3CC(=O)O)cc(-c3cccc(CN)c3F)c2o1` [Compound 200e, 2-(2-((7-(3-(aminomethyl)-2-fluorophenyl)-2-isobutylbenzofuran-5-yl)methoxy)phenyl)acetic acid]: the IC50 was below 1000 nM. With `COc1cccc(CC(=O)O)c1OCc1cc(-c2cccc(CN)c2)c2occc2c1` [Compound 476f, 2-(2-((7-(3-(aminomethyl)phenyl)benzofuran-5-yl)methoxy)-3-methoxyphenyl)acetic acid], the IC50 was below 1000 nM.

On to `NCc1cccc(-c2cc(NC(=O)[C@@H]3CCCN3C(=O)NCc3cccc(Cl)c3F)cc3ccoc23)c1` [Compound 507f, (S)—N2-(7-(3-(aminomethyl)phenyl)benzofuran-5-yl)-N1-(3-chloro-2-fluorobenzyl)pyrrolidine-1,2-dicarboxamide], for which the IC50 is 1000 to 10000 nM. In the case of `CC(N)c1cc2cc(COc3ccccc3CC(=O)O)cc(-c3cccc(CN)c3)c2o1` (single isomer, unassigned; (-)) [Compound 442d, (−)-2-(2-((2-(1-aminoethyl)-7-(3-(aminomethyl)phenyl)benzofuran-5-yl)methoxy)phenyl)acetic acid], the IC50 was below 1000 nM. Turning to `NCc1cccc(-c2cc(COc3cc(F)ccc3CC(=O)O)c(F)c3ccoc23)c1F` [Compound 485b, 2-(2-((7-(3-(aminomethyl)-2-fluorophenyl)-4-fluorobenzofuran-5-yl)methoxy)-4-fluorophenyl)acetic acid], the IC50 was below 1000 nM. Turning to `CC(C)(C)c1ccc(CC(=O)O)c(OCc2cc(-c3cccc(CN)c3)c3occc3c2)c1` [Compound 317f, 2-(2-((7-(3-(aminomethyl)phenyl)benzofuran-5-yl)methoxy)-4-(tert-butyl)phenyl)acetic acid], the 50% inhibitory concentration (IC50) was below 1000 nM. Take `Cc1ccc(CC(=O)O)c(OCc2cc(-c3cccc(CN)c3F)c3oc(F)cc3c2)c1` [Compound 524b, 2-(2-((7-(3-(aminomethyl)-2-fluorophenyl)-2-fluorobenzofuran-5-yl)methoxy)-4-methylphenyl)acetic acid]: the concentration for half-maximal inhibition (IC50) is below 1000 nM. For `NCc1cccc(-c2cc(COc3ccccc3CC(=O)O)cc3cc(CNCc4cccnc4)oc23)c1` [Compound 281c, 2-(2-((7-(3-(aminomethyl)phenyl)-2-(((pyridin-3-ylmethyl)amino)methyl)benzofuran-5-yl)methoxy)phenyl)acetic acid], the half-inhibitory concentration (IC50) was below 1000 nM. `CC(C)n1ccc2c(-c3cccc(CN)c3F)cc(COc3cc(F)ccc3CC(=O)O)cc21` [Compound 450b, 2-(2-((4-(3-(aminomethyl)-2-fluorophenyl)-1-isopropyl-1H-indol-6-yl)methoxy)-4-fluorophenyl)acetic acid]: the IC50 is below 1000 nM.

`COCc1cc2cc(COc3cc(C(C)=O)ccc3CC(=O)O)cc(-c3ccnc(CN)c3F)c2o1` [Compound 530c, 2-(4-acetyl-2-((7-(2-(aminomethyl)-3-fluoropyridin-4-yl)-2-(methoxymethyl)benzofuran-5-yl)methoxy)phenyl)acetic acid]: the IC50 was below 1000 nM. With `CCc1ccc(CC(=O)O)c(OCc2cc(-c3ccnc(CN)c3)c3oc(F)cc3c2)c1` [Compound 390c, 2-(2-((7-(2-(aminomethyl)pyridin-4-yl)-2-fluorobenzofuran-5-yl)methoxy)-4-ethylphenyl)acetic acid], the IC50 is below 1000 nM. With `NCc1cc(-c2cc(COc3ccccc3CC(=O)O)cc3occc23)ccn1` [Compound 123d, 2-(2-((4-(2-(aminomethyl)pyridin-4-yl)benzofuran-6-yl)methoxy)phenyl)acetic acid], the IC50 was below 1000 nM. Regarding `Cc1ccc(CC(=O)O)c(OCc2cc(-c3cccc(CN)c3)c3oc(CO)cc3c2)c1` [Compound 420e, 2-(2-((7-(3-(aminomethyl)phenyl)-2-(hydroxymethyl)benzofuran-5-yl)methoxy)-4-methylphenyl)acetic acid], the IC50 is below 1000 nM. On to `NCc1cc(F)cc(-c2nc(C(=O)Nc3ccccc3CC(=O)O)c3cccn3n2)c1` [Compound 21d, 2-(2-(2-(3-(aminomethyl)-5-fluorophenyl)pyrrolo[2,1-f][1,2,4]triazine-4-carboxamido)phenyl)acetic acid], for which the IC50 is below 1000 nM.

As for `COCc1cc2cc(COc3cc(C#N)ccc3CC(=O)O)cc(-c3cccc(CN)c3F)c2o1` [Compound 416d, 2-(2-((7-(3-(aminomethyl)-2-fluorophenyl)-2-(methoxymethyl)benzofuran-5-yl)methoxy)-4-cyanophenyl)acetic acid], the IC50 is below 1000 nM. As for `CC(C)(O)c1cc2cc(COc3ccccc3CC(=O)O)cc(-c3cccc(CN)c3)c2o1` [Compound 104e, 2-(2-((7-(3-(aminomethyl)phenyl)-2-(2-hydroxypropan-2-yl)benzofuran-5-yl)methoxy)phenyl)acetic acid], the figure is below 1000 nM. As to `Cc1ccc(S(=O)(=O)n2ccc3c(-c4cccc(CN)c4F)cc(COc4ccccc4CC(=O)O)cc32)cc1` [Compound 57c, 2-(2-((4-(3-(aminomethyl)-2-fluorophenyl)-1-tosyl-1H-indol-6-yl)methoxy)phenyl)acetic acid], the concentration for half-maximal inhibition (IC50) was below 1000 nM. Regarding `NCc1cc(-c2cc(COc3cc(F)ccc3CC(=O)O)cc3c(C(F)(F)F)coc23)ccn1` [Compound 491b, 2-(2-((7-(2-(aminomethyl)pyridin-4-yl)-3-(trifluoromethyl)benzofuran-5-yl)methoxy)-4-fluorophenyl)acetic acid], the IC50 is below 1000 nM.

The values above are taken from patent publication US11370774B2, “Substituted benzofuran, benzopyrrole, benzothiophene, and structurally related complement inhibitors” (BioCryst Pharmaceuticals, Inc., priority 2018, dated 2022).
